Test results from patent US7091185B2, “Periodic antimicrobial peptides” (Dow Global Technologies Inc., priority 2003, dated 2006).
Like-named read-outs stand apart in the source and are kept apart here. Where no end group is shown, it is not given here.

Columns and labels:
[1] = Red blood cell toxicity; format: cell-based; settings: red blood cells (RBC)
[2] = system: Red blood cells (RBC); experiment: Red blood cell toxicity; format: cell-based
[3] = system: E. coli ATCC 2592
Experimental: (§1) The bacteria tested were P. aeruginosa American Type Culture Collection Number (ATCC) 10145, E. coli ATCC 2592, and S. aureus (methicillin reseistant) ATTC 33591.
(§2) All experiments were compared to bacterial growth under optimal growth conditions (37° C., pH 7.0, absence of additional salt, growth media—referred to as standard growth conditions). In each plate, no growth control (media alone), positive growth control (bacteria with no test sample), positive antimicrobial controls (agents with known antimicrobial activity) and test compounds were tested.
(§3) The plates were incubated overnight, and the relative percent growth determined by optical density at 620 nm (OD620) using a […] […] PLUS™. […] All samples were tested in duplicate and each assay was repeated at least twice. […] IC50 and MIC are reported in μg/ml.

[4] = system: S. aureus (methicillin resistant) ATCC 33591
Experimental: as §1, §2, §3

[5] = system: P. aeruginosa ATCC 10145
Experimental: as §1, §2, §3

[6] = system: Cr. Neoformans 32045; format: cell-based
Experimental: (§4) The MIC and IC50 values were determined by a broth microdilution method according to guidelines of the National Committee for Clinical Laboratory Standard as follows: In 96-well tissue culture plates, a fixed volume of bacterial suspension in 2× broth (as defined below) was added to the mixtures or individual compounds dispensed at concentrations varying from 1,000 to 1 μg/ml derived from serial two-fold dilutions in sterile water. The bacteria tested were P. aeruginosa American Type Culture Collection Number (ATCC) 10145, E. coli ATCC 2592, and S. aureus (methicillin reseistant) ATTC 33591.
(§5) The plates were incubated overnight, and the relative percent growth determined by optical density at 620 nm (OD620) using a TITERTEK MULTISKAN PLUS™. […] IC50 values were calculated using a sigmoidal curve fitting software program (GRAPHPAD,™ ISI Software,™ San Diego, Calif.). All samples were tested in duplicate and each assay was repeated at least twice. In the following table, KFAK is the repeat unit and multimers of KFAK were tested. IC50 and MIC are reported in μg/ml.
(§6) Because the antibacterial activity of the periodic peptides was so promising, further experiments were performed to determine if the periodic peptides also had antifungal activity. The experimental design was similar to that above, with accommodation made for fungal growth requirements, including the use of Sabouraud Dextrose Broth (SDB) and Sabouraud Dextrose Agar (SDA) slants.

[7] = system: C. albicans 10231; format: cell-based
Experimental: as §4, §5, §6

[8] = system: HeLa cell line; experiment: HeLa MTS cellular reduction toxicity assay; format: cell-based; settings: for TX50: 24 h, MTS
Experimental: The RBC protocol was from Blondelle (2000) and is described generally as follows: The toxicity toward the HeLa cell line was determined using a MTS (3-(4-5-dimethylthiazol-2-yl)-5-(3carboxymethoxyphenyl)-2-(4-sulfophenyl)-2H-tetrazolium, sodium salt) cellular reduction assay. MTS (2 mg/mL) was prepared in Dulbecco PBS (pH 7.35), filtered, aliquoted and stored at minus 20° C. In 96 well flat bottomed plates, cell suspensions (250 μL of 6×10^4 cell/mL in each well) were incubated for 48 h at 37° C. (5% CO2 incubator). The peptides (50 μL) were then added to the cell monolayer (following aspiration of the media from each well and addition of 50 μL of Dulbecco's Modified Eagles Medium) at varying concentrations derived from serial 2-fold dilutions, and the plates incubated for 24 h at 37° C. (5% CO2 incubator). Proliferation was then determined by adding a solution of phenazine methosulfate (PMS: 0.92 mg/mL in DPBS) to MTS at a 1:20 ration just prior to the assay. Twenty microliters MTS-PMS solution were added to each well and the plates incubated for 1 h at 37° C. (5% CO2 incubator). The relative percent toxicity was determined by comparing the absorbance at 490 nm of each peptide to the absorbance of cells without peptide. The TX50 (concentration required for 50% toxicity) was calculated using a sigmoidal curve fitting software (Graphpad Prism).

[9] = system: P. aeruginosa ATCC 15442; experiment: HMARQ biocidal kill activity; format: cell-based; settings: P. aeruginosa ATCC 15442 (gram−)
Experimental: (§7) Biocide efficacy protocols were improved by reducing sample size, organizing the test material into an array format, implementing most probable number (MPN) quantitation and using multi-channel liquid handling equipment. We call the new method “high-throughput microanalysis and rapid quantitation” or “HMARQ.” HMARQ is directly applicable to current industrial efficacy tests such as multi-cycle preservation challenge or time course disinfection tests.
(§8) HMARQ is performed in a high throughput plate, such as 96-well microtiter plates. Typical sample volumes have been reduced down to 200 to 300 μL, but can be reduced further if desired. In these samples, no more than 10% of the total volume will be composed of the biocide and organism solution, and all non-matrix additions are normalized for all samples.
(§9) The sample matrix is first inoculated with the desired concentration of microorganisms. Inoculated sample matrix is then added to the 96-well assay block containing the biocide(s) under study. Each sample block contains biocide treated samples and untreated control samples (lacking biocide). Once the samples are prepared, the entire block of samples is mixed by vortexing until each sample is homogenous. In general, the study starts once mixing is complete, and samples are removed as required for the analysis. When Kill Time testing (rate of biocide activity) is performed, the microorganisms are added after biocide addition to the samples, allowing for rapid mixing and analysis.
(§10) Bacterial concentration (CFU/mL) is determined using the most probable number method (MPN). The contaminated solution is serially diluted until the “no growth” endpoint is reached. The endpoint represents the MPN and is expressed in units of the bacterial concentration. A serial 1:10 dilution will yield a bacterial concentration resolution of 1 log and the log reduction is determined by comparing the concentration of organisms in a treated sample to the concentration of organisms in untreated samples. For example, if a sample requires four 1:10 dilutions before bacterial growth is lost then the MPN for bacterial concentration in the sample is less than or equal to 1×10^4 CFU/mL (1E4). […] This method of enumeration is generally applicable to all non-filamentous microorganisms.
(§11) Media included Tryptic Soy Broth (TSB) for bacteria and Sabouraud Dextrose Broth (SDB) for fungi. These are available commercially and prepared according to the manufacturers instructions. Indicator medium was TSB/R for bacteria and SDB/R for fungi. These were made by addition of 50 μM filter sterilized Resazurin to the sterilized and cooled medium. Tryptic Soy agar plates (TSA) and SDA slants were used to provide inoculant for bacterial and fungal cultures. The indicator dye appeared pink or white when bacterial growth was present.
(§12) Using the HMARQ test described above, periodic peptides were generated and tested for Kill Activity. In this experiment, a broader range of peptidezs were tested for activity. Units are expressed as ppm (μg/mL) needed for 3.5 log kill at 15 min or 24 hour and the results are shown below.

[10] = system: Staph. aureus ATCC 6538; experiment: HMARQ biocidal kill activity; format: cell-based; settings: Staph. aureus ATCC 6538 (gram+)
Experimental: as §7, §8, §9, §10, §11, §12

[11] = RBCs, concentration required for 50% toxicity, read-out: TX50
[12] = S. aureus (methicillin resistant) 33591, gram+
[13] = Table 3, P aeruginosa 10145, gram−

| Substance | HC50 at 24 h [1, 11] [µg/mL] | % kill at 250 μg/ml [2] [%] | IC50 ([3]; ATCC 2592) [µg/mL] | MIC ([3]; ATCC 2592) [µg/mL] | IC50 ([4]; ATCC 33591) [µg/mL] | MIC ([4]; ATCC 33591) [µg/mL] | IC50 ([5]; ATCC 10145) [µg/mL] | MIC ([5]; ATCC 10145) [µg/mL] | IC50 [6] [µg/mL] | MIC [6] [µg/mL] | IC50 [7]; 10231 [µg/mL] | MIC [7]; 10231 [µg/mL] | % kill at 500 μg/ml [8] [%] | TX50 [8] [µg/mL] | ppm needed for 3.5 log kill at 15 min [9] [ppm] | ppm needed for 3.5 log kill at 24 hr [9] [ppm] | ppm needed for 3.5 log kill at 15 min [10] [ppm] | ppm needed for 3.5 log kill at 24 hr [10] [ppm] | other results |
| --- | --- | --- | --- | --- | --- | --- | --- | --- | --- | --- | --- | --- | --- | --- | --- | --- | --- | --- | --- |
| H-FKAFKAFKAFKAFKAFKAFKAFKAFKAFKA-OH [FKA (10), FKA FKA FKA FKA FKA FKA FKA FKA FKA FKA] | > 500 | 51 | 9 | 31 to 62 | 12 | 31 to 62 | 27 | 32 | 20 | 32 to 62 | 182 | 250 to 500 | 15.0 | 234 | 8 | 16 | 8 | 8 |  |
| AKKFAKKFAKKFAKKFAKKFAKKF [AKKF (6), AKKF AKKF AKKF AKKF AKKF AKKF] |  | 100 | 8 | 16 to 32 | 41 | 125 to 250 | 21 | 25 | 11 | 16 to 32 | 225 | 250 to 500 | 7.3 | 33 | >500 | 16 | >500 | 125 | HC50 at 24 h [1]: 39 µg/mL |
| KFFKKFFKKFFKKFFKKFFKKFFKKFFK [KFFK (7), KFFK KFFK KFFK KFFK KFFK KFFK KFFK] | 12 |  |  |  |  |  |  |  |  |  |  |  | −0.5 | 30 | 16 | 8 | 4 | 63 | % kill at 250 μg/ml ([2]; RBCs, 250 μg/ml): 100%; IC50 ([3]; E. coli 2592, gram−): 63 µg/mL; MIC ([3]; E. coli 2592, gram−): >125 µg/mL; IC50 [4, 12]: 133 µg/mL; MIC [4, 12]: >250 µg/mL; IC50 [5, 13]: 87 µg/mL; MIC [5, 13]: 125 µg/mL; IC50 ([6]; fungus Cr. Neoformans 32045): 55 µg/mL; MIC ([6]; fungus Cr. Neoformans 32045): 62 to 125 µg/mL; IC50 ([7]; yeast C. albicans 10231): 183 µg/mL; MIC ([7]; yeast C. albicans 10231): 250 to 500 µg/mL |
| FKAFKAFKAFKAFKAFKAFKA [FKA (7), FKA FKA FKA FKA FKA FKA FKA] | > 500 | 11 | 7 | 16 to 32 | >500 | >500 | 23 | 32 | 3.2 | 4 to 8 | 203 | 250 to 500 | 103.3 | >500 | 125 | 63 | 500 | 500 |  |
| LKKLLKKLLKKLLKKLLKKLLKKLLKKLLKKL [LKKL (8), LKKL LKKL LKKL LKKL LKKL LKKL LKKL LKKL] | 8 | 100 | 37 | 62 to 125 | 80 | >250 | 61 | 125 | 56 | 62 to 125 | 179 | 250 to 500 | 0.1 | 23 | 4 | 8 | >500 | 125 |  |
| RFARRFARRFARRFARRFARRFARRFARRFAR [RFAR (8), RFAR RFAR RFAR RFAR RFAR RFAR RFAR RFAR] | 17 | 100 | 12 | 32 to 62 | 20 | 125 to 250 | 30 | 62 | 32 | 62 to 125 | 144 | 250 to 500 | 9.5 | 71 | >500 | 16 | >500 | 125 |  |
